For 8 compounds, TGI results are on record in PubChem BioAssay (NCI).

Among the test systems are SF-268 CNS; RXF 393 renal; ACHN renal; NCI-H226 lung; NCI/ADR-RES ovarian; 786-0 renal; SW-620 colon; NCI-H522 lung; OVCAR-3 ovarian; SN12C renal; MALME-3M melanoma; MOLT-4 leukemia; NCI-H460 lung; MDA-MB-435; KM12 colon; OVCAR-5 ovarian; HS 578T breast; HL-60(TB) leukemia; SK-OV-3 ovarian.
Assay in all cases: NCI anticancer screen, dose series, 48 h

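A five-concentration, 48-hour dose response in 96-well plates underlies each endpoint, interpolated linearly between surrounding concentrations. The concentration for full growth arrest is given as TGI.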

Turning to `COC(=O)C1Cc2c(OC)ccc(OC)c2C(O)C1C(=O)OC` (stereo not drawn), the TGI with SF-268 CNS, in the assay on RXF 393 renal, with ACHN renal, in the assay with NCI-H226 lung, in the assay on NCI/ADR-RES ovarian and in the assay with 786-0 renal was above 100 µM in each case. Besides, the TGI with SW-620 colon, in the assay on NCI-H522 lung, in the assay with OVCAR-3 ovarian, in the assay on SN12C renal, with MALME-3M melanoma and in the assay on MOLT-4 leukemia was above 100 µM in each case. In addition, the TGI in the assay on NCI-H460 lung, with MDA-MB-435, in the assay with KM12 colon, in the assay with OVCAR-5 ovarian, in the assay on HS 578T breast and in the assay with HL-60(TB) leukemia was above 100 µM each time.
With `CCC(=O)N/S(=N/S(=O)(=O)c1ccccc1)C(Cl)(Cl)Cl` (stereo not drawn), the TGI in the assay on SF-268 CNS, in the assay with RXF 393 renal, in the assay on ACHN renal, in the assay on NCI-H226 lung, in the assay on SK-OV-3 ovarian and with NCI/ADR-RES ovarian was above 100 µM in each case. The TGI with 786-0 renal, in the assay with SW-620 colon, in the assay on OVCAR-3 ovarian, in the assay on SN12C renal, in the assay with MALME-3M melanoma and with MOLT-4 leukemia was above 100 µM each time. The TGI in the assay on NCI-H460 lung, in the assay with MDA-MB-435, with KM12 colon, in the assay with OVCAR-5 ovarian, in the assay with HS 578T breast and in the assay on HL-60(TB) leukemia was above 100 µM in each case.
In the case of `O=C(O)c1nc2ccc(C(F)(F)F)cc2nc1Nc1ccc(Cl)c(Cl)c1`, the TGI in the assay on SF-268 CNS was 21.9 µM; in the assay on RXF 393 renal it was 28.9 µM; with ACHN renal, 49.7 µM; in the assay on NCI-H226 lung, 24.9 µM; in the assay on NCI/ADR-RES ovarian, 19.7 µM; in the assay with 786-0 renal, 23.7 µM. Further, the TGI was determined as 24.1 µM with SW-620 colon; 15.2 µM with NCI-H522 lung; 23.9 µM in the assay on OVCAR-3 ovarian; 22.1 µM in the assay with SN12C renal; 31 µM in the assay on MALME-3M melanoma; 17.3 µM in the assay on MOLT-4 leukemia. Besides, the TGI stood at 20.8 µM with NCI-H460 lung; 19.1 µM in the assay with MDA-MB-435; 20.5 µM with KM12 colon; 28.9 µM with OVCAR-5 ovarian; 41.6 µM with HS 578T breast; 21.9 µM with HL-60(TB) leukemia.
For the compound `Nc1nccc(NCC2(CO)CC(OCc3ccccc3)C2)n1` (stereo not drawn), the TGI with RXF 393 renal, in the assay with ACHN renal, in the assay with NCI-H226 lung, in the assay with NCI/ADR-RES ovarian, in the assay with 786-0 renal and with SW-620 colon was above 100 µM in each case. Moreover, the TGI in the assay with NCI-H522 lung, with OVCAR-3 ovarian, with SN12C renal, in the assay with MALME-3M melanoma, in the assay on MOLT-4 leukemia and in the assay on NCI-H460 lung was above 100 µM each time. The TGI in the assay on MDA-MB-435, with KM12 colon, with OVCAR-5 ovarian, in the assay on HS 578T breast and in the assay on HL-60(TB) leukemia was above 100 µM each time.
In the case of `COc1ccc(-c2oc3cc(OC)c(OC)c(O)c3c(=O)c2OC)cc1`, the TGI in the assay with SF-268 CNS was 98.4 µM; in the assay with RXF 393 renal, 78.8 µM; with ACHN renal, above 100 µM; in the assay with NCI-H226 lung, above 100 µM; in the assay with SK-OV-3 ovarian it was above 100 µM; in the assay with NCI/ADR-RES ovarian, above 100 µM. The TGI in the assay on 786-0 renal was 68.2 µM; in the assay on SW-620 colon, above 100 µM; with NCI-H522 lung, above 100 µM; with SN12C renal, above 100 µM; in the assay on MALME-3M melanoma it was above 100 µM; with MOLT-4 leukemia, above 100 µM. Further, the TGI was above 100 µM with NCI-H460 lung; above 100 µM in the assay on MDA-MB-435; above 100 µM in the assay with KM12 colon; above 100 µM in the assay on OVCAR-5 ovarian; 72.3 µM in the assay on HS 578T breast; above 100 µM with HL-60(TB) leukemia.
Consider `CCc1ccc2[nH]c(O)c(C3=Nc4ccccc4C3=O)c2c1`, for which the TGI was 90.6 µM with SF-268 CNS; 51.4 µM in the assay on RXF 393 renal; 24.8 µM with ACHN renal; above 100 µM with NCI-H226 lung; 41.5 µM in the assay with SK-OV-3 ovarian; above 100 µM with NCI/ADR-RES ovarian. The TGI is 19 µM in the assay on 786-0 renal; above 100 µM in the assay with SW-620 colon; 75.2 µM in the assay with NCI-H522 lung; 51.8 µM with OVCAR-3 ovarian; above 100 µM with SN12C renal; above 100 µM in the assay on MALME-3M melanoma. Also, the TGI in the assay on MOLT-4 leukemia is 64.2 µM; in the assay on NCI-H460 lung it was above 100 µM; in the assay on MDA-MB-435 it was above 100 µM; with KM12 colon it was above 100 µM; in the assay on OVCAR-5 ovarian, above 100 µM; in the assay with HS 578T breast it was above 100 µM.
For `CC1(C)CC(=O)c2c(nc3c(ccc4ccccc43)c2-c2ccc(NC(=O)CCC(=O)Nc3ccc(-c4c5c(nc6c4ccc4ccccc46)CC(C)(C)CC5=O)cc3)cc2)C1`, the TGI with SF-268 CNS, in the assay on RXF 393 renal, in the assay on ACHN renal, with NCI-H226 lung, in the assay on SK-OV-3 ovarian and in the assay with NCI/ADR-RES ovarian was above 100 µM throughout. The TGI with 786-0 renal, in the assay on SW-620 colon, with NCI-H522 lung, in the assay on OVCAR-3 ovarian, with SN12C renal and in the assay with MOLT-4 leukemia was above 100 µM in each case. For the same compound, the TGI in the assay on NCI-H460 lung, in the assay on MDA-MB-435, in the assay with KM12 colon, in the assay with OVCAR-5 ovarian, with HS 578T breast and in the assay with HL-60(TB) leukemia was above 100 µM each time.
Take `Cc1ccc(S(=O)C[C@](NC(=O)OCc2ccccc2)(Sc2ccccc2)C(F)F)cc1` (stereo partly drawn): the TGI in the assay with SF-268 CNS was determined as 63.4 µM; in the assay on RXF 393 renal, 79.5 µM; with ACHN renal, 45.5 µM; in the assay on NCI-H226 lung, 32.4 µM; with SK-OV-3 ovarian it was 36 µM; in the assay on NCI/ADR-RES ovarian it was 54.6 µM. For the same compound, the TGI with 786-0 renal came out at 29.2 µM; with SW-620 colon, 40.6 µM; in the assay on NCI-H522 lung it was 22.4 µM; with OVCAR-3 ovarian, 66.1 µM; in the assay on MALME-3M melanoma it was 47.6 µM; in the assay with MOLT-4 leukemia, 22.2 µM. Further, the TGI in the assay on NCI-H460 lung was 42.2 µM; in the assay on MDA-MB-435 it was 79.6 µM; in the assay with KM12 colon, 31.9 µM; in the assay with OVCAR-5 ovarian it was 63.9 µM; in the assay with HS 578T breast it was 94.3 µM; with HL-60(TB) leukemia it was 24.9 µM.
